Measurements reported in patent US20100291596A1, “SCREENING METHOD FOR AGENTS SUITABLE FOR THERAPY OF ALZHEIMER'S DISEASE” (FREIE UNIVERSITAT BERLIN, priority 2007, published 2010).
Entries after “also recorded” stand apart in the source; their conditions may differ.

What was measured:
[1] = biological target: T1, gamma-secretase (Homo sapiens, UniProt P49768); assay: Quantification of gamma-secretase inhibition: average YFP fluorescence of HEK293 cells expressing APP-CTF-YFP; assay type: cell-based; conditions: 6 h
T1 construct: HEK293 expressing SPA4CT-YFP were spread into a 96-well dish and were treated with NSAIDs or controls for 6 h; endogenous in cells; host or cells: HEK293 (ATCC CRL-1573)
Description: (§1) To quantify the effects of NSAIDs on gamma-secretase activity, HEK293 expressing SPA4CT-YFP were spread into a 96-well dish and were treated with NSAIDs or controls for 6 h. Intensity of YFP fluorescence was quantified with adjusted filters in a 96-well fluorescence reader (company BertholdTech, Mithras). (i) Cells expressing a fusion protein comprising the substrate of gamma-secretase (APP-CTF) and a fluorescent protein (fp) are incubated with the drug candidate in a 96 well plate. Prior to addition to the cells, the drug is dissolved in EtOH or DMSO. Controls are (1) untreated culture medium, (2) culture medium containing EtOH or DMSO, and (3) culture medium with known inhibitors of gamma-secretase. After incubation for 6 h to 24 hours the fluorescence is determined. If gamma-secretase is active, the fusion protein is degraded and the fluorescent protein spreads in the cell, e.g., the cell cytoplasm. As a consequence, intensive fluorescence is not detectable. If the gamma-secretase is inhibited, the substrate of gamma-secretase accumulates at the plasma membrane resulting in an intensive (and traceable) fluorescence (see, for further experimental details and results FIGS. 1 and 1.II and the figure legend). Drug candidates which inhibit the biological activity (i.e. cleavage of the substrate) of gamma-secretase are discarded.

[2] = system: SH-SY5Y cells; assay: MTS assay of viable SH-SY5Y cells for determination of cytotoxicity; assay type: cell-based, human; conditions: 24 h
Description: SH-SY5Y cells expressing SPA4CT wt were spread at a density of 30.000 cells per 96-well. The cell culture media (OptiMEM, Invitrogen or serum containing medium, Biochrom) were supplemented with NSAIDs in varying concentrations as well as positive controls (without treatment or vehicle control) and negative controls (0.01% to 0.5% Triton X-100). Each well was incubated with 100 μl of supplemented media for 24 h. Then, 20 μl of the MTS stain solution (Promega, cell viability assay) was added and after 2-4 h incubation time the absorbance at 562 nm was measured.
(§2) (ii) Initially, the cytotoxicity of the compounds in cultures of neuronal cells is determined using a cell proliferation assay or an assay based on viable cells (FIG. 2). Then, APP-CTF, APP or APPsw (APPsw: APP with the familial AD mutation “swedish” (K670N M671L); APP-CTF: APP-C-terminal fragment; CTF: after alpha- or beta-secretase cleavage) expressing cells are incubated with the drug candidate (two different concentrations, 96 well plate format). After incubation for 6 to 24 h the amount of Abeta42 secreted from the cell culture medium is determined using ELISA (see, for further experimental details and results FIG. 3 and the figure legend). Drug candidates causing a reduction of the amount of Abeta42 are assayed in a further step comprising ELISA and MALDI-MS. First, the amounts of Abeta40 and Abeta38 (as well as additional possible Abeta species) are quantified by use of ELISA. Then, the entire spectrum of secreted Abeta species is assayed using immunoprecipitation and MALDI-MS analysis (see, for further experimental details and results FIG. 4 and the figure legend). Compounds leading to reduced amounts of Abeta42 and increased amounts of shorter Abeta species are selected and assayed in a further screening step.

[3] = system: Abeta species from APP G33A-transfected cells; assay: ELISA quantification of Abeta species secreted from APP G33A-transfected cells; assay type: cell-based
Description: (§3) Quantification of Abeta 42, Abeta 40 and Abeta38 with ELISA Stably transfected cells were plated at a density of 2.8×10^5 cells per 12-well. The day after splitting, 200 μl of fresh media supplemented with NSAIDs or control vehicles were added and incubated for 6 h. For Abeta40 and Abeta42-specific ELISAs, 50 μl of media were analyzed according to the manufacturer's instruction (The Genetics company (TGC), Basel, Switzerland). The same protocol was applied to determine Abeta38 levels, except that the antibody BAP-29 (provided by M. Brockhaus, Roche, Basel, Switzerland) was used.
The effect of the drugs on the dimerization motif GxxxG of TMS of APP is assayed. Drug candidates were added to the cell culture medium containing APP-CTF, APP or APPsw expressing neuronal cells or cells containing the APP-processing machinery as described in Example 2. In addition, cell lines were assayed expressing altered APP molecules characterized by a mutated GxxxG motif. Binding of the compounds to the APP GxxxG motif results in an altered processing only of the wild type proteins, but not the altered GxxxG motif of mutants (see, for further experimental details and results FIG. 5 and the figure legend).
Detection and characterization of the binding of the drug candidate to the GxxxG motif. Binding of the compounds to Abeta42 is verified by use of BIACORE and the KD-value is determined. Binding of the compounds to the GAIIG motif should lead to lack of binding to corresponding Abeta42-fragments or GxxxG mutant peptides. Similarly, using ELISA with synthetical peptides binding of NSAIDs can be determined via a competition assay (see, for further experimental details and results FIG. 6 and the figure legend).

[4] = biological target: T2, transmembrane sequence Abeta29-42 wt (Homo sapiens, UniProt P05067); assay: ToxR system: dimerization of transmembrane sequence Abeta29-42 wt; assay type: cell-based
T2 construct: the amino acid residues 29-42 of the Abeta region ([…]); expressed in transfected cells; host or cells: E. coli FHK12
Description: ToxR-system E. coli FHK12 cells were transformed with accordant DNA constructs encoding for ToxR-fusionproteins containing at least a part of the APP transmembrane sequence (e.g. sequence Abeta 29-42). Cells were grown in either FHK medium or minimal medium (e.g. M9 medium) supplemented with NSAIDs and corresponding vehicle controls for 6 h. Then, aliquots of the cells were lysed and beta-galactosidase activity was measured (Langosch et al., 1996).
The second screening step is carried out in order to find compounds selectively modulating only the processing of APP via binding to the transmembrane sequence (TMS) of APP. The APP-GxxxG motif is, inter alia, a perfect target structure for selecting compounds characterized by high affinity binding (Munter et al., EMBO J. 26 (2007), 1702-12). In the bacterial assay system (ToxR system) only the transmembrane sequence of APP containing the amino acid residues 29-42 of the Abeta region (GAIIGLMVGGVVIA) is expressed as part of a fusion protein. […] The rate of transcription correlates with the degree of dimerization and can be determined by measuring the conversion of a coloured substrate. […] After incubation for 2 to 24 h the degree of dimerization is determined. Binding of compounds to the amino acid sequence Abeta 29-42 results in weakening of dimerization and this is determined by measuring the decrease of enzymatic activity. […]

[5] = biological target: T1, gamma-secretase; assay: Confocal laser scanning microscopy of subcellular distribution of APP-CTF-YFP in HEK293 cells expressing SPA4CT-YFP; assay type: cell-based; conditions: 6 h
Description: HEK293 cells were transiently transfected with SPA4CT-YFP. After 24 h, cells were treated with varying concentrations (indicated in the figures) of different NSAIDs, gamma-secretase inhibitor N-[N-(3,5-difluorophenacetyl-L-alanyl)]-S-phenylglycine t-butyl ester (DAPT) or vehicle control for 6 h. The subcellular distribution of APP-CTF-YFP within living cells was analyzed by confocal laser scanning microscopy (LSM).
as §1, with “(i)” for “To quantify the effects of NSAIDs on gamma-secretase activity, HEK293 expressing SPA4CT-YFP were spread into a 96-well dish and were treated with NSAIDs or controls for 6 h. Intensity of YFP fluorescence was quantified with adjusted filters in a 96-well fluorescence reader (company BertholdTech, Mithras). (i)”, “Drug candidates which inhibit the biological activity (i.e. cleavage of the substrate) of gamma-secretase are discarded.” left out

[6] = system: Abeta species secreted from SH-SY5Y cells which stably express wild type APP; assay: ELISA quantification of Abeta species secreted from SH-SY5Y cells stably expressing wild type APP; assay type: cell-based, human; conditions: APP wt, 6 h
Description: as §3, §2

CSc1ccc(/C=C2/C(C)=C(CC(=O)O)c3cc(F)ccc32)cc1 [sulindac sulfide]
Average fluorescence compared to the DMSO control ([1]; 50 μM): slight increase of fluorescence | Concentration at which compound is no longer toxic (MTS assay) [2]: 150 µM | Secreted amount of Abeta38 [3]: does not substantially reduce | Secreted amount of Abeta40 [3]: does not substantially reduce | Secreted amount of Abeta42 [3]: no impact | Stability of dimerization of the transmembrane sequence [4]: weakens the stability of dimerization of the transmembrane sequence of Abeta29-42 in a concentration dependent manner | Localization of APP-CTF-YFP (confocal images) ([5]; 30 μM): APP-CTF preferably accumulates at the ER/nuclear membrane | Secreted amount of Abeta38 [6]: low and does not substantially reduce | Secreted amount of Abeta40 [6]: low and does not substantially reduce | Secreted amount of Abeta42 [6]: decreases in a concentration dependent manner; also recorded: reduces

C[C@H](NC(=O)Cc1cc(F)cc(F)c1)C(=O)N[C@H](C(=O)OC(C)(C)C)c1ccccc1 [DAPT, N-[N-(3,5-difluorophenacetyl-L-alanyl)]-S-phenylglycine t-butyl ester]
Average fluorescence compared to the DMSO control ([1]; 1 μM): increased fluorescence | Localization of APP-CTF-YFP (confocal images) ([5]; 1 μM added to cell culture medium): APP-CTF preferably accumulates at the plasma membrane

CC(C)OC(=O)C(C)(C)Oc1ccc(C(=O)c2ccc(Cl)cc2)cc1 [Fenofibrate]
Concentration at which compound is no longer toxic (MTS assay) [2]: 5 µM

CC(C)Cc1ccc(C(C)C(=O)O)cc1 (stereo not shown) [Ibuprofen]
Average fluorescence compared to the DMSO control ([1]; 50 μM): slight increase of fluorescence | Concentration at which compound is no longer toxic (MTS assay) [2]: 250 µM | Stability of dimerization of the transmembrane sequence [4]: weakens the strength of dimerization
